Assay results from the supplement of paper PMC4862054.

Experiments:
Settings in all cases: incubation time: 72 h
MDA-MB-453 [1] = assay: normalised viability (% of control), CellTiter-Blue; higher = more viable cells (about 100 = DMSO control)
Procedure: (§1)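 DSRT, CellTiter-Blue viability, 72 h incubation. Signal is normalised to DMSO and benzethonium chloride controls. Value is the normalised response at dose 9.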

CAL-85-1 [2] = assay: as above
Procedure: as §1

CAL-51 [3] = assay: as above
Procedure: as §1

DU-4475 [4] = assay: as above
Procedure: as §1

HDQ-P1 [5] = assay: as above
Procedure: as §1

CAL-148 [6] = assay: as above
Procedure: as §1

MDA-MB-453 [7] = assay: as above; remark: listed apart in the source
Procedure: (§2)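 DSRT, CellTiter-Blue viability, 72 h incubation. Signal is normalised to DMSO and benzethonium chloride controls. Value is the normalised response at dose 8.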

CAL-85-1 [8] = assay: as above; remark: listed apart in the source
Procedure: as §2

CAL-51 [9] = assay: as above; remark: listed apart in the source
Procedure: as §2

DU-4475 [10] = assay: as above; remark: listed apart in the source
Procedure: as §2

HDQ-P1 [11] = assay: as above; remark: listed apart in the source
Procedure: as §2

CAL-148 [12] = assay: as above; remark: listed apart in the source
Procedure: as §2

MCF-10A = assay: drug sensitivity score (DSS), CellTox Green (DSS (AUC-based score)); higher = stronger drug effect (viability inhibition or cytotoxicity); extreme values may be limits of the assay
Outline: (§3)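 Normalisation on every plate relied on 0.1 % DMSO and a positive kill control. The plates, 384-well format, held compound at 5 concentrations 10-fold apart across a compound-specific 10,000-fold range, and breast cancer cell lines in 20 µl suspension were incubated on them for 72 h before CellTox Green and then CellTiter-Glo readings. The drug sensitivity score derives from the area under the fitted dose-response curve.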

MDA-MB-453 [13] = assay: as above
Outline: as §3

MFM-223 = assay: as above
Outline: as §3

CAL-85-1 [14] = assay: as above
Outline: as §3

Hs578T = assay: as above
Outline: as §3

BT-549 = assay: as above
Outline: as §3

CAL-51 [15] = assay: as above
Outline: as §3

MDA-MB-436 = assay: as above
Outline: as §3

CAL-120 = assay: as above
Outline: as §3

DU-4475 [16] = assay: as above
Outline: as §3

HCC1937 = assay: as above
Outline: as §3

MDA-MB-468 = assay: as above
Outline: as §3

HDQ-P1 [17] = assay: as above
Outline: as §3

MDA-MB-231 = assay: as above
Outline: as §3

CAL-148 [18] = assay: as above
Outline: as §3

| Structure (SMILES) | normalised viability (MDA-MB-453 [1]; 1000 nM) | normalised viability (CAL-85-1 [2]; 1000 nM) | normalised viability (CAL-51 [3]; 1000 nM) | normalised viability (DU-4475 [4]; 1000 nM) | normalised viability (HDQ-P1 [5]; 1000 nM) | normalised viability (CAL-148 [6]; 1000 nM) | normalised viability (MDA-MB-453 [7]; 300 nM) | normalised viability (CAL-85-1 [8]; 300 nM) | normalised viability (CAL-51 [9]; 300 nM) | normalised viability (DU-4475 [10]; 300 nM) | normalised viability (HDQ-P1 [11]; 300 nM) | normalised viability (CAL-148 [12]; 300 nM) | drug sensitivity score (MCF-10A) | drug sensitivity score (MDA-MB-453 [13]) | drug sensitivity score (MFM-223) | drug sensitivity score (CAL-85-1 [14]) | drug sensitivity score (Hs578T) | drug sensitivity score (BT-549) | drug sensitivity score (CAL-51 [15]) | drug sensitivity score (MDA-MB-436) | drug sensitivity score (CAL-120) | drug sensitivity score (DU-4475 [16]) | drug sensitivity score (HCC1937) | drug sensitivity score (MDA-MB-468) | drug sensitivity score (HDQ-P1 [17]) | drug sensitivity score (MDA-MB-231) | drug sensitivity score (CAL-148 [18]) | normalised viability (MDA-MB-453 [1]; 10000 nM) | normalised viability (CAL-85-1 [2]; 10000 nM) | normalised viability (CAL-51 [3]; 10000 nM) | normalised viability (DU-4475 [4]; 10000 nM) | normalised viability (HDQ-P1 [5]; 10000 nM) | normalised viability (CAL-148 [6]; 10000 nM) | normalised viability (MDA-MB-453 [7]; 3000 nM) | normalised viability (CAL-85-1 [8]; 3000 nM) | normalised viability (CAL-51 [9]; 3000 nM) | normalised viability (DU-4475 [10]; 3000 nM) | normalised viability (HDQ-P1 [11]; 3000 nM) | normalised viability (CAL-148 [12]; 3000 nM) |
| --- | --- | --- | --- | --- | --- | --- | --- | --- | --- | --- | --- | --- | --- | --- | --- | --- | --- | --- | --- | --- | --- | --- | --- | --- | --- | --- | --- | --- | --- | --- | --- | --- | --- | --- | --- | --- | --- | --- | --- |
| COc1cc2c(Oc3ccc4[nH]c(C)cc4c3F)ncnc2cc1OCCCN1CCCC1 [Cediranib] | 77.9% | 102% | 74.1% | 83.4% | 94.6% | 113% | 86.2% | 103% | 90.7% | 98.8% | 88.3% | 101% | 0 | 0 | 0 | 1.23 | 0 | 0 | 0 | 0 | 0 | 0 | 0 | 0 | 0 | 0 | 0 |  |  |  |  |  |  |  |  |  |  |  |  |
| Nc1ccccc1NC(=O)c1ccc(CNC(=O)OCc2cccnc2)cc1 [Entinostat] |  |  |  |  |  |  |  |  |  |  |  |  | 0 | 0 | 1.09 | 4.07 | 0 | 0 | 7.91 | 4.39 | 0 | 0 | 1.35 | 11.1 | 0 | 1.91 | 1.86 | 11.2% | 20.7% | 29.6% | 0.48% | 71.2% | 9.38% | 50.3% | 53.7% | 108% | 103% | 80% | 58.7% |
| O=C(Cc1ccc(-c2ccc(OCCN3CCOCC3)cc2)cn1)NCc1ccccc1 [KX2-391] |  |  |  |  |  |  |  |  |  |  |  |  | 15.5 | 0 | 13.2 | 17.3 | 11.4 | 0 | 20.3 | 4.73 | 1.54 | 0 | 3.38 | 30.1 | 4.28 | 0 | 0 | 38.1% | 45.4% | 12.5% | 15.5% | 47.6% | 34.2% | 36.2% | 42.1% | 11.3% | 8.65% | 41.6% | 24.2% |
| N#Cc1ccc(C(c2ccc(C#N)cc2)n2cncn2)cc1 [Letrozole] |  |  |  |  |  |  |  |  |  |  |  |  | 0 | 0 | 0 | 0 | 0.858 | 0 | 0 | 0 | 0 | 0 | 0 | 4.02 | 0 | 0 | 0 | 51.8% | 70.3% | 96.3% | 82.9% | 93% | 92.4% | 105% | 90% | 111% | 85.8% | 94% | 95.5% |
| C[C@H]1C[C@@H]2[C@H]([C@@H](O)C[C@@]3(C)[C@H]2CC[C@]3(O)C(=O)CO)[C@@]2(C)C=CC(=O)C=C12 [Methylprednisolone] |  |  |  |  |  |  |  |  |  |  |  |  | 0 | 0 | 0 | 0 | 0 | 0 | 0 | 0 | 0 | 0 | 0 | 0 | 0 | 0 | 0 | 75.7% | 91% | 92.5% | 87.4% | 123% | 106% | 74.1% | 101% | 105% | 97.9% | 105% | 96.8% |
